Experimental data from patent publication US20090060861A1, “Stabilized Polypeptide Formulations” (NOVO Nordisk A/S, priority 2005, published 2009).
Like-named read-outs stand apart in the source and are kept apart here.

Columns and labels:
[1] = target: T1, insulin aspart (Asp^B28 human insulin) (Homo sapiens, UniProt P01308, P52D); details: pH 7.4
Experimental: Compositions comprising the buffer components covered by the present invention were prepared according to the above-mentioned and a reference composition containing 7 mM sodium phosphate as buffer component was prepared in parallel.

[2] = target: human insulin (Homo sapiens, UniProt P01308)
[3] = target: T1, insulin aspart (Asp^B28 human insulin); assay: Chemical stability of the polypeptide, degradation products formed during storage; details: insulin aspart compositions, 1-100 mM buffer; 3 months storage at 5° C. or 37° C.; data not shown
[4] = target: T1, insulin aspart (Asp^B28 human insulin)
[5] = insulin aspart 600 nmol/mL, 1-100 mM buffer, 37° C., shake 1200 rpm, n=12
[6] = human insulin, 6.7 mM buffer, n=12

T1 sequence (P01308 25-54 P52D): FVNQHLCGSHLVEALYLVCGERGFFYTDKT
T1 sequence (P01308 90-110): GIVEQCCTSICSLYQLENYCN
Chain of human insulin (P01308 25-54 limits assumed): as the sequence (P01308 25-54 P52D) above, with D28P counted along it

SMILES	polypeptide stability (physical stability, ThT lag-time) compared to compositions comprising phosphate buffer (7 mM) [1, 5]	polypeptide stability (physical stability, ThT lag-time) compared to compositions comprising phosphate buffer [2, 6]	impact on chemical stability of the polypeptide (amount of degradation products formed) [3]	impact on chemical stability of the polypeptide (amount of degradation products formed) [4]	polypeptide stability (physical stability, ThT lag-time) compared to compositions comprising phosphate buffer (7 mM) [1]	polypeptide stability (physical stability, ThT lag-time) compared to compositions comprising phosphate buffer [2]
CC(N)(CO)CO [AMPD, 2-amino-2-methyl-1,3-propanediol]	increased	increased	No significant impact			
CC[N+](CC)(CC)CC.[Cl-] [T.E.A. chloride, tetraethylammonium chloride]	increased	increased		No significant impact		
CCC(CC)(C(=O)O)C(=O)O [diethylmalonic acid, diethylpropanedioic acid]	increased	increased	No significant impact			
Cl.NCC(N)=O [glycinamid hydrochloride]			No significant impact		increased	increased
O=C(O)c1ccc(C(=O)O)c(C(=O)O)c1 [trimellitic acid, 1,2,4-benzenetricarboxylic acid]	increased	increased	No significant impact			
